Test results: US20230257347A1 (priority 2020, published 2023)
pEC50, pIC50: −log10 of the molar value. Counter-ions that a name gives are not always drawn. Like-named read-outs stand apart in the source and are kept apart here.

Experiments:
KvLQT1/minK = target: T1, KvLQT1/minK (Homo sapiens, UniProt P15382+P51787); experiment: Ion channel assay, KvLQT1/minK; assay type: cell-based
T1 construct: expressed in transfected cells

[1] = target: T2, Nicotinic acetylcholine Receptor α4 β2 (nAChR(a4/b2)) (Homo sapiens, UniProt P17787+P43681); experiment: cell-based
T2 construct: expressed in transfected cells

[2] = target: T3, Adrenergic Receptor α2A (ADRA2A) (Homo sapiens, UniProt P08913); experiment: cAMP assay, ADRA2A; assay type: cell-based
T3 sequence (P08913 1-465): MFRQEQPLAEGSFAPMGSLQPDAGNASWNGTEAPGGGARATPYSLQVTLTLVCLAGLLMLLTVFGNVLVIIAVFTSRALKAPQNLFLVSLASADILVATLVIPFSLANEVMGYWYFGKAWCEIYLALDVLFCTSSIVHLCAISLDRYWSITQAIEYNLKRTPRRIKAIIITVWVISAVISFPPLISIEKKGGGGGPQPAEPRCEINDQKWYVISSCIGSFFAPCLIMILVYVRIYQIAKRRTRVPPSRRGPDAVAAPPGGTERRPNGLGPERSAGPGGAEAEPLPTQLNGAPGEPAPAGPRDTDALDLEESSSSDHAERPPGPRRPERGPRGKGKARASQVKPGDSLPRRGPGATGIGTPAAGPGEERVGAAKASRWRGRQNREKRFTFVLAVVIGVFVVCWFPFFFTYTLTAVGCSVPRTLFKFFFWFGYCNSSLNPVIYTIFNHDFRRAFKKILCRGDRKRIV

[3] = target: T4, Endothelin Receptor Type A (EDNRA) (Homo sapiens, UniProt P25101); experiment: Calcium flux assay, EDNRA; assay type: cell-based
T4 sequence (P25101 21-427): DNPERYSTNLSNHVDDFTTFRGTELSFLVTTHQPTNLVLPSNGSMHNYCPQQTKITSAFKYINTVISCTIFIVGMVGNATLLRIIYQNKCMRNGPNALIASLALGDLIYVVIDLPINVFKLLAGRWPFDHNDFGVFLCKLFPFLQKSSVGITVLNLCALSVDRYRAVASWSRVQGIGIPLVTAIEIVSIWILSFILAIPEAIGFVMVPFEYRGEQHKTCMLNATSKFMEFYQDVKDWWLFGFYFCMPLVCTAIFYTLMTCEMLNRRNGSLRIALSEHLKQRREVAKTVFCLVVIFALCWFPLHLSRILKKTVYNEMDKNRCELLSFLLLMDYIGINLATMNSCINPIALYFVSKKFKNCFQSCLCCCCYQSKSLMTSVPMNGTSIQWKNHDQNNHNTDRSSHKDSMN

[4] = target: Dopamine Receptor D1 (DRD1) (Homo sapiens, UniProt P21728); experiment: cAMP assay, DRD1; assay type: cell-based
[5] = target: T5, Monoamine oxidase type A (MAOA) (Homo sapiens, UniProt P21397); experiment: Enzymatic assay, MAOA (kynuramine substrate); assay type: biochemical
T5 construct: purchased Sigma
T5 sequence (P21397 1-527): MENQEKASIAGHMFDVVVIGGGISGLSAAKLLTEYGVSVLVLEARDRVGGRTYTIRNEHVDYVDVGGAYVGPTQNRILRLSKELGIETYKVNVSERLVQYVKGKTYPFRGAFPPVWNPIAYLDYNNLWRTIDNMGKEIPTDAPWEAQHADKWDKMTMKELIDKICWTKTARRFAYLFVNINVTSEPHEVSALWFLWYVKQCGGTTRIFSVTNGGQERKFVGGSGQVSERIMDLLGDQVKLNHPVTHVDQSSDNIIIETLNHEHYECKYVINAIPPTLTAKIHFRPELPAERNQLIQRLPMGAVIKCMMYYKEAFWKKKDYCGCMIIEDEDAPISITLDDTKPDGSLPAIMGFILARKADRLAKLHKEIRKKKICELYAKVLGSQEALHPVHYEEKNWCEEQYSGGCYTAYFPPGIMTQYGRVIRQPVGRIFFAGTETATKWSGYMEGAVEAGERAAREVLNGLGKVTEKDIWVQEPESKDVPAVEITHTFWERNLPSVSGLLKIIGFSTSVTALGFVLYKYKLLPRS

[6] = target: NAV1.5 (tetrodotoxin-resistant voltage-gated sodium channel) (Homo sapiens, UniProt Q14524); experiment: cell-based
[7] = target: Histamine Receptor H1 (HRH1) (Homo sapiens, UniProt P35367); experiment: cell-based
[8] = target: 5-Hydroxytryptamine (Serotonin) Receptor 1B (5-HT1B) (Homo sapiens, UniProt P28222); experiment: cAMP secondary messenger assay, 5-HT1B; assay type: cell-based
[9] = target: T6, Cholecystokinin Receptor A (CCKAR) (Homo sapiens, UniProt P32238); experiment: Calcium flux assay, CCKAR; assay type: cell-based
T6 sequence (P32238 1-428): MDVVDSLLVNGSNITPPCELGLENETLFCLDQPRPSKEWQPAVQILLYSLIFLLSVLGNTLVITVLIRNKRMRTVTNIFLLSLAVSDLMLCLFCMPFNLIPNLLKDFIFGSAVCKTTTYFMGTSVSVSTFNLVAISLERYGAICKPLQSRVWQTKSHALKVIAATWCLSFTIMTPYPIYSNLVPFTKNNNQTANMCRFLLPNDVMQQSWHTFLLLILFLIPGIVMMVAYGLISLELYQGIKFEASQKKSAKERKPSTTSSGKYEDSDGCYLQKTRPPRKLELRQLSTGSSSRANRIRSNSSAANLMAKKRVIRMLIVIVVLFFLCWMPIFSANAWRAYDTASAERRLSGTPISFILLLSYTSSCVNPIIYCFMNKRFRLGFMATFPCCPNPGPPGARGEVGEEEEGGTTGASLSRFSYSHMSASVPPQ

[10] = target: T7, Dopamine transporter (DAT) (Homo sapiens, UniProt Q01959); experiment: Monoamine transporter uptake assay (fluorescent substrate), DAT; assay type: cell-based
T7 construct: expressed in transfected cells

[11] = target: T8, Vascular endothelial growth factor receptor 2 (KDR tyrosine kinase) (VEGFR2) (Homo sapiens, UniProt P35968); experiment: biochemical; assay type: binding
T8 construct: made in house; host or cells: E. coli BL21-derived host (T7 phage) or HEK-293

[12] = read-out: MAOA IC50, Table 10, Source: Original data

Sequence of Histamine Receptor H1 (HRH1) (P35367 whole entry): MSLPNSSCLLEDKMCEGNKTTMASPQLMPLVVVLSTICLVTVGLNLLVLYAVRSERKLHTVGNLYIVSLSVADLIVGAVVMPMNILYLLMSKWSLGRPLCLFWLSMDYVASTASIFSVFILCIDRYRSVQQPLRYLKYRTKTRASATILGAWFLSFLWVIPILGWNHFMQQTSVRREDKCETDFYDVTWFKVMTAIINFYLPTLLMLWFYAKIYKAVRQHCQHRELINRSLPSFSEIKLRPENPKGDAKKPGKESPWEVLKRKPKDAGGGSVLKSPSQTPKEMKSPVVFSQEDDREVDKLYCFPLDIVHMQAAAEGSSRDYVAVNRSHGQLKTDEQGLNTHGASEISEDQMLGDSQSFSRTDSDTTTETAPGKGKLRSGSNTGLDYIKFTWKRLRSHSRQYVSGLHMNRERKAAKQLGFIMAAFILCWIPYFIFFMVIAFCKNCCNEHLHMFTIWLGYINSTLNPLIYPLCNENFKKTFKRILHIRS
T7 sequence (Q01959 whole entry): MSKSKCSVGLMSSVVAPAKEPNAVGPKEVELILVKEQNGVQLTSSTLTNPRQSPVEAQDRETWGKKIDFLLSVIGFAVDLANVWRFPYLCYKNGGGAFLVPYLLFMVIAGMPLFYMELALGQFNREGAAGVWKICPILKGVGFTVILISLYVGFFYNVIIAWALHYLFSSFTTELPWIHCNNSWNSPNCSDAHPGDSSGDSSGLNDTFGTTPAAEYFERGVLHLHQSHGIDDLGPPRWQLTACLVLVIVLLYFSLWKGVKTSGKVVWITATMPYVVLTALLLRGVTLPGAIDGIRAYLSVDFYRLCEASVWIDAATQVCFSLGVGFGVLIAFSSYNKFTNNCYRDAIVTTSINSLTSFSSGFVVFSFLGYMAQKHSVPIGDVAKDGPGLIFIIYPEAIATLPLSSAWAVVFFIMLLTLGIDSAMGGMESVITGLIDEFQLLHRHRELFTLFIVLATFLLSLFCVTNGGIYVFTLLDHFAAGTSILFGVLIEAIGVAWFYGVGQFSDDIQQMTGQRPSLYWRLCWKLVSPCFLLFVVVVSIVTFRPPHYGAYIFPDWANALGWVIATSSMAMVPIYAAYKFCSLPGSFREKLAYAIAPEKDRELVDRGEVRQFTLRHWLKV
T1 sequence (P51787 whole entry): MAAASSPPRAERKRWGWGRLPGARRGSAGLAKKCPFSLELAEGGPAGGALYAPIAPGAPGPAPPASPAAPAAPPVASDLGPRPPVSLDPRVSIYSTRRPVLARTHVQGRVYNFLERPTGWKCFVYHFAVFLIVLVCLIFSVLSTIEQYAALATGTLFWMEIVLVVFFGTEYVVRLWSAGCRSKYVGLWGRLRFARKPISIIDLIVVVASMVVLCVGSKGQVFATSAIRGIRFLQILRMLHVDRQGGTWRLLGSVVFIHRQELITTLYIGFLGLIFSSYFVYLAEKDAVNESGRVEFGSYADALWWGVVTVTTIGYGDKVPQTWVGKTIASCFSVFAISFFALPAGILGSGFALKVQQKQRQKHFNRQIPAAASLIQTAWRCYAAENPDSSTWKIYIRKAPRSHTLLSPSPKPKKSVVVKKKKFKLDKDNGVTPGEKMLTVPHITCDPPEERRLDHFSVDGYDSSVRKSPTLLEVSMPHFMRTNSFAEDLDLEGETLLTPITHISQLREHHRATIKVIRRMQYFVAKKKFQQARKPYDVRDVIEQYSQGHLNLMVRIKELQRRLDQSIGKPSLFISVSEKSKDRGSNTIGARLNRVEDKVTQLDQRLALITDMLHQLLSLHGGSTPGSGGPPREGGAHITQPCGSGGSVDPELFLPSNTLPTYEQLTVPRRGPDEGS
Sequence of 5-Hydroxytryptamine (Serotonin) Receptor 1B (5-HT1B) (P28222 whole entry): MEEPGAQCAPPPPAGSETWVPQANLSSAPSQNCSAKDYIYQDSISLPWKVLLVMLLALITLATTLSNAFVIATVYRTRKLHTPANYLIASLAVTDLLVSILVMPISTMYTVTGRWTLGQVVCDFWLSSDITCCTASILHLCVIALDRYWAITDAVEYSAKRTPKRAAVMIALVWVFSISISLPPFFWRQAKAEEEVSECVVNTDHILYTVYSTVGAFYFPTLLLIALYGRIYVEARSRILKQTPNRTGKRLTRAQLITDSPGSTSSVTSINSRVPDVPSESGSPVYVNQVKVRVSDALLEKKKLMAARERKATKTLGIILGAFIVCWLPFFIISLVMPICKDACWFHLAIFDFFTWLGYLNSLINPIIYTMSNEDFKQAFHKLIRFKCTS
T2 sequence (P43681 29-627 limits assumed): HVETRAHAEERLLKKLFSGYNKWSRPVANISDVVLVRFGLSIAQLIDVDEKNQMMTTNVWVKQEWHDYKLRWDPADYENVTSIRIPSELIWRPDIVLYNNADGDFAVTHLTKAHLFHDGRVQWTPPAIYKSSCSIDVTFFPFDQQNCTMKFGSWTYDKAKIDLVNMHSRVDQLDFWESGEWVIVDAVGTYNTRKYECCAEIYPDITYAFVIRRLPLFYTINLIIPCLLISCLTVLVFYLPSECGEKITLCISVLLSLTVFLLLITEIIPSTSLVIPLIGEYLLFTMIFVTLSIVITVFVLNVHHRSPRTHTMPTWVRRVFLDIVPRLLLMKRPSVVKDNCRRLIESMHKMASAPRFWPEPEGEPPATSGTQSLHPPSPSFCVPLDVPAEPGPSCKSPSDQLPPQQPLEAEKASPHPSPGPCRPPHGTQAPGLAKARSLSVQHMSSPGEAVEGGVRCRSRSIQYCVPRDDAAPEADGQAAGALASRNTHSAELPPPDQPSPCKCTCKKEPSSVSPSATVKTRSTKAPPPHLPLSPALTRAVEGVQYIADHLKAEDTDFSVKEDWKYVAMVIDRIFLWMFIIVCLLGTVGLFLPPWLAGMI
T2 sequence (P17787 26-502): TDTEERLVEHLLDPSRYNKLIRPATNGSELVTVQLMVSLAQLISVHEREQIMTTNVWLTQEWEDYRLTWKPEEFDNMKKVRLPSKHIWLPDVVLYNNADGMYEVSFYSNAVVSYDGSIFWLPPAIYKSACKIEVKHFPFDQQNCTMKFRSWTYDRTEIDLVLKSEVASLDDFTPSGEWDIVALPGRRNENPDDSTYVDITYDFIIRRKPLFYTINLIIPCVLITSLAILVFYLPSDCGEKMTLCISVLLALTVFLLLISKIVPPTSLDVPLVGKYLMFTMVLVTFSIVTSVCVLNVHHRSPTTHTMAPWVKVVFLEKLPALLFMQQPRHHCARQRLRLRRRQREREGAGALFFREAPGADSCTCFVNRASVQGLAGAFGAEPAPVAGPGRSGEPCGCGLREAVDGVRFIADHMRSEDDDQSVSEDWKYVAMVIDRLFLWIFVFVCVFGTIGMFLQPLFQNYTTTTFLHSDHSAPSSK
Sequence of Dopamine Receptor D1 (DRD1) (P21728 whole entry): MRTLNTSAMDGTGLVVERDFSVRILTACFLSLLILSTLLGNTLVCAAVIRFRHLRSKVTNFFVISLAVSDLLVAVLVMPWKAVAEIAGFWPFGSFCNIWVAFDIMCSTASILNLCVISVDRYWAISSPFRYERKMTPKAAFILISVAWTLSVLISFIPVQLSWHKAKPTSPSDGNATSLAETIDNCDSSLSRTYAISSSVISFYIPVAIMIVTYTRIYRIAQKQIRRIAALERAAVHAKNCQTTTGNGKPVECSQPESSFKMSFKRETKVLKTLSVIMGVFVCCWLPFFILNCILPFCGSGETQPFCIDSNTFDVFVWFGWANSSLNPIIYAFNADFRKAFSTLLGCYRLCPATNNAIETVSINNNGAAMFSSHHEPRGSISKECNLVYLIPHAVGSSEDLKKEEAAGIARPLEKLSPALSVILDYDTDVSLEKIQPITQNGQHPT

## CNC(C)C(=O)c1c[nH]c2ccc(Br)cc12 (stereo not shown) [BK-5Br-NM-AMT, 1-(5-bromo-1H-indol-3-yl)-2-(methylamino) propan-1-one hydrochloride]
KvLQT1/minK
  pEC50: < 5.00
  pIC50: < 5.00
[1]
  pEC50: < 5.00
  pIC50: < 5.00
[2]
  pEC50: < 5.00
  pIC50: < 5.00
[3]
  pEC50: < 5.00
  pIC50: < 5.00
[4]
  pEC50: < 5.00
  pIC50: 5.01
[5]
  pIC50: < 5.00
[5]; [12]
  pIC50: < 5.00
[6]
  pIC50: < 5.00
[7]
  pEC50: < 5.00
  pIC50: < 5.00
[8]
  pEC50: < 5.00
  pIC50: < 5.00
[9]
  pEC50: < 5.00
  pIC50: < 5.00
[10]
  pIC50: 5.37
[11]
  pIC50: < 5.00

## CNC(C)C(=O)c1c[nH]c2ccc(Cl)cc12 (stereo not shown) [BK-5Cl-NM-AMT, 1-(5-chloro-1H-indol-3-yl)-2-(methylamino) propan-1-one hydrochloride]
KvLQT1/minK
  pEC50: < 5.00
  pIC50: < 5.00
[1]
  pEC50: < 5.00
  pIC50: < 5.00
[2]
  pEC50: < 5.00
  pIC50: < 5.00
[3]
  pEC50: < 5.00
  pIC50: < 5.00
[4]
  pEC50: < 5.00
  pIC50: < 5.00
[5]
  pIC50: < 5.00
[5]; [12]
  pIC50: < 5.00
[6]
  pIC50: < 5.00
[7]
  pEC50: < 5.00
  pIC50: < 5.00
[8]
  pEC50: < 5.00
  pIC50: < 5.00
[9]
  pEC50: < 5.00
  pIC50: < 5.00
[10]
  pIC50: 5.22
[11]
  pIC50: < 5.00

## CNC(C)C(=O)c1c[nH]c2ccc(F)cc12 (stereo not shown) [BK-5F-NM-AMT, 1-(5-Fluoro-1H-indol-3-yl)-2-(methylamino) propan-1-one hydrochloride]
KvLQT1/minK
  pEC50: < 5.00
  pIC50: < 5.00
[1]
  pEC50: < 5.00
  pIC50: < 5.00
[2]
  pEC50: < 5.00
  pIC50: < 5.00
[3]
  pEC50: < 5.00
  pIC50: < 5.00
[4]
  pEC50: < 5.00
  pIC50: < 5.00
[5]
  pIC50: < 5.00
[5]; original data
  MAOA inhibition (MAOI or not, in words): is not an MAOI
[5]; [12]
  pIC50: < 5.00
[6]
  pIC50: < 5.00
[7]
  pEC50: < 5.00
  pIC50: < 5.00
[8]
  pEC50: < 5.00
  pIC50: < 5.00
[9]
  pEC50: < 5.00
  pIC50: < 5.00
[10]
  pIC50: < 5.00
[11]
  pIC50: < 5.00
